According to the NIST ThermoML archive (doi:10.1021/je049556i):

Assays:
[1] = 101 kPa, Liquid
[2] = xn = mol fraction of the nth substance listed; conditions: 101 kPa, Liquid

CC1OC(C)OC(C)O1 (stereo not drawn) [2,4,6-trimethyl-1,3,5-trioxane]
[1]
Conditions	mass density [kg/m3]	viscosity [mPa·s]
298.15 K	988.35	1.107
303.15 K	982.64	1.001
308.15 K	976.44	0.907

CC1OC(C)OC(C)O1 (stereo not drawn) [2,4,6-trimethyl-1,3,5-trioxane] + CCCCO
[2]
Conditions	mass density, 298.15 K [kg/m3]	mass density, 303.15 K [kg/m3]	mass density, 308.15 K [kg/m3]	viscosity, 298.15 K [mPa·s]	viscosity, 303.15 K [mPa·s]	viscosity, 308.15 K [mPa·s]
x1 = 0.0289	814.71	810.8	806.91	2.46	2.164	1.917
x1 = 0.0582	823.46	819.5	815.51	2.311	2.037	1.809
x1 = 0.0804	829.94	825.93	821.87	2.204	1.948	1.732
x1 = 0.0999	835.53	831.47	827.35	2.116	1.873	1.668
x1 = 0.194	861.02	856.78	852.47	1.756	1.568	1.406
x1 = 0.3007	886.93	882.65	878.35	1.471	1.324	1.197
x1 = 0.4056	909.58	905	900.34	1.302	1.177	1.07
x1 = 0.5091	928.91	924.2	919.2	1.219	1.103	1.006
x1 = 0.6218	946.67	941.75	936.55	1.193	1.077	0.983
x1 = 0.6932	956.21	951.23	945.98	1.193	1.075	0.98
x1 = 0.8331	972.07	966.65	960.87	1.184	1.064	0.969
x1 = 0.9165	980.1	974.5	968.65	1.143	1.03	0.938
x1 = 1	988.35	982.64	976.44	1.107	1.001	0.907

CC1OC(C)OC(C)O1 (stereo not drawn) [2,4,6-trimethyl-1,3,5-trioxane] + CCCO
[2]
Conditions	mass density, 298.15 K [kg/m3]	mass density, 303.15 K [kg/m3]	mass density, 308.15 K [kg/m3]	viscosity, 298.15 K [mPa·s]	viscosity, 303.15 K [mPa·s]	viscosity, 308.15 K [mPa·s]
x1 = 0.0286	809.7	804.77	800.59	1.861	1.653	1.474
x1 = 0.0484	816.43	811.5	807.28	1.807	1.606	1.433
x1 = 0.0743	824.91	820	815.72	1.74	1.548	1.383
x1 = 0.101	833.29	828.4	824.06	1.676	1.492	1.334
x1 = 0.197	860.73	855.87	851.32	1.481	1.322	1.187
x1 = 0.3124	888.86	883.99	879.22	1.312	1.175	1.061
x1 = 0.4052	908.29	903.38	898.44	1.219	1.096	0.994
x1 = 0.527	930.22	925.2	920.07	1.145	1.034	0.942
x1 = 0.5689	936.94	931.88	926.69	1.129	1.021	0.931
x1 = 0.7214	958.42	953.17	947.75	1.105	1.001	0.915
x1 = 0.8026	968.19	962.8	957.27	1.105	1.002	0.915
x1 = 0.8948	978.07	972.51	966.87	1.109	1.005	0.915
x1 = 1	988.35	982.64	976.44	1.107	1.001	0.907

CC1OC(C)OC(C)O1 (stereo not drawn) [2,4,6-trimethyl-1,3,5-trioxane] + CCO
[2]
Conditions	mass density, 298.15 K [kg/m3]	mass density, 303.15 K [kg/m3]	mass density, 308.15 K [kg/m3]	viscosity, 298.15 K [mPa·s]	viscosity, 303.15 K [mPa·s]	viscosity, 308.15 K [mPa·s]
x1 = 0.0372	802.48	798.21	793.84	1.071	0.979	0.886
x1 = 0.0801	820.65	816.3	811.97	1.059	0.966	0.876
x1 = 0.1299	839.52	835.19	830.81	1.045	0.952	0.866
x1 = 0.1885	859.12	854.68	850.28	1.031	0.938	0.855
x1 = 0.2589	879.57	875.01	870.45	1.016	0.924	0.844
x1 = 0.3433	900.45	895.77	890.94	1.003	0.912	0.835
x1 = 0.4485	922.04	917.27	912.16	0.994	0.903	0.828
x1 = 0.5823	944.05	939.04	933.74	0.995	0.904	0.829
x1 = 0.6816	957.34	952.18	946.76	1.006	0.915	0.837
x1 = 0.7582	966.15	960.83	955.25	1.022	0.929	0.849
x1 = 0.8003	970.54	965.15	959.44	1.033	0.939	0.857
x1 = 0.8452	974.98	969.45	963.6	1.048	0.951	0.868
x1 = 0.8932	979.38	973.8	967.86	1.065	0.967	0.881
x1 = 0.9446	983.9	978.26	972.13	1.088	0.986	0.897
x1 = 1	988.35	982.64	976.44	1.107	1.001	0.907

CCCCO [butan-1-ol]
[1]
Conditions	mass density [kg/m3]	viscosity [mPa·s]
298.15 K	805.84	2.618
303.15 K	802	2.297
308.15 K	798.2	2.032

CCCCO [butan-1-ol] + CC1OC(C)OC(C)O1
[2], x2 = 0
Conditions	mass density [kg/m3]	viscosity [mPa·s]
298.15 K	805.84	2.618
303.15 K	802	2.297
308.15 K	798.2	2.032

CCO [ethanol]
[1]
Conditions	mass density [kg/m3]	viscosity [mPa·s]
298.15 K	785.06	1.083
303.15 K	780.74	0.99
308.15 K	776.48	0.895

CCO [ethanol] + CC1OC(C)OC(C)O1
[2], x2 = 0
Conditions	mass density [kg/m3]	viscosity [mPa·s]
298.15 K	785.06	1.083
303.15 K	780.74	0.99
308.15 K	776.48	0.895

CCCO [propan-1-ol]
[1]
Conditions	mass density [kg/m3]	viscosity [mPa·s]
298.15 K	799.6	1.943
303.15 K	794.64	1.725
308.15 K	790.53	1.537

CCCO [propan-1-ol] + CC1OC(C)OC(C)O1
[2], x2 = 0
Conditions	mass density [kg/m3]	viscosity [mPa·s]
298.15 K	799.6	1.943
303.15 K	794.64	1.725
308.15 K	790.53	1.537
